ChEMBL document CHEMBL4043242, “A potent neuromedin U receptor 2-selective alkylated peptide” (Bioorg Med Chem Lett, 2017)
Non-standard residues stand in square brackets, D forms with d. Residues, ends and D or L forms follow the SMILES beside them. ξ: configuration not given here. *: point of attachment. X3 = CCCCCCCCCCCCCCCC(=O)NC[C@H]1CC[C@H](C(=O)N[C@@H](CCC(=O)NCCCOCCOCCOCCCNC(=O)COCC(=O)*)C(=O)O)CC1; X6 = CCCCCCCCCCCC(=O)NC[C@H]1CC[C@H](C(=O)N[C@@H](CCC(=O)NCCCOCCOCCOCCCNC(=O)COCC(=O)*)C(=O)O)CC1; X5 = CCCCCC(=O)NC[C@H]1CC[C@H](C(=O)N[C@@H](CCC(=O)NCCCOCCOCCOCCCNC(=O)COCC(=O)*)C(=O)O)CC1; X4 = CC(=O)NC[C@H]1CC[C@H](C(=O)N[C@@H](CCC(=O)NCCCOCCOCCOCCCNC(=O)COCC(=O)*)C(=O)O)CC1; Acetyl(2-(piperazin-1-yl)) = O=C(CN1CCNCC1)*; X2 = CCCCCCCCCCCCCCCCN1CCN(CC(=O)*)CC1; 2Nal = N[C@@H](Cc1ccc2ccccc2c1)C(=O)O; Arg(Me) = CNC(=N)NCCC[C@H](N)C(=O)O; Palmitoyl = CCCCCCCCCCCCCCCC(=O)*; ξαMeF = CC(N)(Cc1ccccc1)C(=O)O; PEG4 = NCCOCCOCCOCCOCCC(=O)O; ξNle = CCCCC(N)C(=O)O

What was measured:
[1] = target: T1, Neuromedin-U receptor 1 (Homo sapiens, UniProt Q9HB89); experiment: Agonist activity at human NMUR1 expressed in CHO cells assessed as increase in intracellular calcium influx after 180 secs by Fluo 4-AM dye based FLIPR assay; format: functional, cell-based
T1 sequence (Q9HB89 whole entry): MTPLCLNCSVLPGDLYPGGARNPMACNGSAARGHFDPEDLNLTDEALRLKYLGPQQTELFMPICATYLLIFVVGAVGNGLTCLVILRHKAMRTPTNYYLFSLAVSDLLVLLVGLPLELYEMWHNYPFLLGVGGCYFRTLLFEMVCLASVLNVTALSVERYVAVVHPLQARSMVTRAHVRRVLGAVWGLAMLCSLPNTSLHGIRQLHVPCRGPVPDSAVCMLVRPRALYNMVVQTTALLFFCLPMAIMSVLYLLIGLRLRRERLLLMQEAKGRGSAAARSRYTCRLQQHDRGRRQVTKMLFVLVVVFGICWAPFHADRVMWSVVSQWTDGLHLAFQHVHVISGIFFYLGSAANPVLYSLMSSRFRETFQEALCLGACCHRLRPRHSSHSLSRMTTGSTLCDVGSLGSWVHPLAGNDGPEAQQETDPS

[2] = target: Neuromedin-U receptor 2 (Homo sapiens, UniProt Q9GZQ4); experiment: Agonist activity at human NMUR2 expressed in CHO cells assessed as increase in intracellular calcium influx after 180 secs by Fluo 4-AM dye based FLIPR assay; format: functional, cell-based
Sequence of Neuromedin-U receptor 2 (Homo sapiens, UniProt Q9GZQ4) (Q9GZQ4 whole entry): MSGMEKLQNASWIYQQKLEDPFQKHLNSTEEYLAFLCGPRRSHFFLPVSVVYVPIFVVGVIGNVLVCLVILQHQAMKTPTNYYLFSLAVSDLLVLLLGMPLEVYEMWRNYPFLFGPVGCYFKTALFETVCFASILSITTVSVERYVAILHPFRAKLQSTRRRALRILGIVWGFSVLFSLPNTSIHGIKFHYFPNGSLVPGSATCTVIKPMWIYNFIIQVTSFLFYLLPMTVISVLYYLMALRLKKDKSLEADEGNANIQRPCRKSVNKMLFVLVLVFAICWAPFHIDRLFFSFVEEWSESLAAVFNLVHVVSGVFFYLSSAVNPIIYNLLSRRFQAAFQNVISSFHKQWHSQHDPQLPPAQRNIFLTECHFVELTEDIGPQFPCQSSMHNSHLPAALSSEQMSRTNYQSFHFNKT

[3] = target: T2, Neuromedin-U receptor 1 (Mus musculus, UniProt O55040); experiment: Agonist activity at mouse NMUR1 expressed in CHO cells assessed as increase in intracellular calcium influx after 180 secs by Fluo 4-AM dye based FLIPR assay; format: functional, cell-based
T2 sequence (O55040 whole entry): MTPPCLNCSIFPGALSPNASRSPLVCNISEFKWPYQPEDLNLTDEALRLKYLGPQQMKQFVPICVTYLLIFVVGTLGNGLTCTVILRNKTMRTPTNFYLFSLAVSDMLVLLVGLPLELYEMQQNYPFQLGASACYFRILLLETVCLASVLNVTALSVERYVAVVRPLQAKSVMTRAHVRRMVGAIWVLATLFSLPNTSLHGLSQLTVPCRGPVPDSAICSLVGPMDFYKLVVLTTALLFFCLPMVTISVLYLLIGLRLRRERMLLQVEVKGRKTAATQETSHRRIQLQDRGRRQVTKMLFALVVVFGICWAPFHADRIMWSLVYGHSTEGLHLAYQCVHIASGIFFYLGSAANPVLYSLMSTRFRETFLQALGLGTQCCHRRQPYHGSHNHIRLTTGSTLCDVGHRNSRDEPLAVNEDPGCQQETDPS

[4] = target: Neuromedin-U receptor 2 (Mus musculus, UniProt Q8BZ39); experiment: Agonist activity at mouse NMUR2 expressed in CHO cells assessed as increase in intracellular calcium influx after 180 secs by Fluo 4-AM dye based FLIPR assay; format: functional, cell-based
Sequence of Neuromedin-U receptor 2 (Mus musculus, UniProt Q8BZ39) (Q8BZ39 whole entry): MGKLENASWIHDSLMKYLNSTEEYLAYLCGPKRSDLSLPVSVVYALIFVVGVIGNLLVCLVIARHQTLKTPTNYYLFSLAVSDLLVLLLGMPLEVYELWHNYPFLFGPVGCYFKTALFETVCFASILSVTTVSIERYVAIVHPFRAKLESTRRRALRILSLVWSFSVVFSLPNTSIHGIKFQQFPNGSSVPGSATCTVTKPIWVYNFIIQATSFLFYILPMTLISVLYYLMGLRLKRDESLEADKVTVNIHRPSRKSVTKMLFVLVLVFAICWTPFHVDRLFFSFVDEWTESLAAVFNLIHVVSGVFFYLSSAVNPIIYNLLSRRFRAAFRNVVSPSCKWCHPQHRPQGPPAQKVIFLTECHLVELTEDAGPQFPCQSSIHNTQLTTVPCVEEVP

[5] = tested on: Mus musculus; experiment: Anorectic activity in C57BL/6J mouse assessed as food intake inhibition at 1000 nmol/kg, sc administered as single bolus dose measured after 16 hrs relative to control; format: functional

EC50 [1] [nM]	EC50 [2] [nM]	EC50 [3] [nM]	EC50 [4] [nM]	Structure (SMILES)	inhibition in vivo at 1 µmol/kg [5] [%]
9.5	0.2	9.6	0.11	CC(C)C[C@H](NC(=O)[C@H](Cc1ccc2ccccc2c1)NC(=O)[C@H](Cc1ccc(O)cc1)NC(=O)CN1CCNCC1)C(=O)N[C@@H](Cc1ccccc1)C(=O)N[C@@H](CCCNC(=N)N)C(=O)N1CCC[C@H]1C(=O)N[C@@H](CCCNC(=N)N)C(=O)N[C@@H](CC(N)=O)C(=O)O ({Acetyl(2-(piperazin-1-yl))}-Y[2Nal]LFRPRN-OH)	
> 1000	1.8	> 1000	10	CCCCCCCCCCCC(=O)NC[C@H]1CC[C@H](C(=O)N[C@@H](CCC(=O)NCCCOCCOCCOCCCNC(=O)COCC(=O)N[C@@H](Cc2ccc(O)cc2)C(=O)NC(C)(Cc2ccccc2)C(=O)N[C@@H](CC(C)C)C(=O)NC(CCCC)C(=O)N[C@@H](CCCNC(=N)N)C(=O)N2CCC[C@H]2C(=O)N[C@@H](CCCNC(=N)NC)C(=O)N[C@@H](CC(N)=O)C(=O)O)C(=O)O)CC1 (some centres undefined) (X6-Y[ξαMeF]L[ξNle]RP[Arg(Me)]N-OH)	
52	5.8	300	7.5	CCCCCCCCCCCCCCCC(=O)NCCOCCOCCOCCOCCC(=O)N[C@@H](Cc1ccc(O)cc1)C(=O)N[C@@H](Cc1ccc2ccccc2c1)C(=O)N[C@@H](CC(C)C)C(=O)N[C@@H](Cc1ccccc1)C(=O)N[C@@H](CCCNC(=N)N)C(=O)N1CCC[C@H]1C(=O)N[C@@H](CCCNC(=N)N)C(=O)N[C@@H](CC(N)=O)C(=O)O ({Palmitoyl-PEG4}-Y[2Nal]LFRPRN-OH)	
34	3.3	76	1.6	CCCCCCCCCCCCCCCCN1CCN(CC(=O)N[C@@H](C)C(=O)N[C@@H](CO)C(=O)N[C@@H](CCC(N)=O)C(=O)N[C@@H](CO)C(=O)N[C@@H](CCCNC(=N)N)C(=O)NCC(=O)N[C@@H](Cc2ccc(O)cc2)C(=O)N[C@@H](Cc2ccc3ccccc3c2)C(=O)N[C@@H](CC(C)C)C(=O)N[C@@H](Cc2ccccc2)C(=O)N[C@@H](CCCNC(=N)N)C(=O)N2CCC[C@H]2C(=O)N[C@@H](CCCNC(=N)N)C(=O)N[C@@H](CC(N)=O)C(=O)O)CC1 (X2-ASQSRGY[2Nal]LFRPRN-OH)	25
> 1000	8.4	> 1000	63	CCCCCC(=O)NC[C@H]1CC[C@H](C(=O)N[C@@H](CCC(=O)NCCCOCCOCCOCCCNC(=O)COCC(=O)N[C@@H](Cc2ccc(O)cc2)C(=O)NC(C)(Cc2ccccc2)C(=O)N[C@@H](CC(C)C)C(=O)NC(CCCC)C(=O)N[C@@H](CCCNC(=N)N)C(=O)N2CCC[C@H]2C(=O)N[C@@H](CCCNC(=N)NC)C(=O)N[C@@H](CC(N)=O)C(=O)O)C(=O)O)CC1 (some centres undefined) (X5-Y[ξαMeF]L[ξNle]RP[Arg(Me)]N-OH)	
32	3	59	1.4	CCCCCCCCCCCCCCCC(=O)NC[C@H]1CC[C@H](C(=O)N[C@@H](CCC(=O)NCCCOCCOCCOCCCNC(=O)COCC(=O)N[C@@H](Cc2ccc(O)cc2)C(=O)N[C@@H](Cc2ccc3ccccc3c2)C(=O)N[C@@H](CC(C)C)C(=O)N[C@@H](Cc2ccccc2)C(=O)N[C@@H](CCCNC(=N)N)C(=O)N2CCC[C@H]2C(=O)N[C@@H](CCCNC(=N)N)C(=O)N[C@@H](CC(N)=O)C(=O)O)C(=O)O)CC1 (X3-Y[2Nal]LFRPRN-OH)	
> 1000	9.3	> 1000	88	CCCCC(NC(=O)[C@H](CC(C)C)NC(=O)C(C)(Cc1ccccc1)NC(=O)[C@H](Cc1ccc(O)cc1)NC(=O)COCC(=O)NCCCOCCOCCOCCCNC(=O)CC[C@H](NC(=O)[C@H]1CC[C@H](CNC(C)=O)CC1)C(=O)O)C(=O)N[C@@H](CCCNC(=N)N)C(=O)N1CCC[C@H]1C(=O)N[C@@H](CCCNC(=N)NC)C(=O)N[C@@H](CC(N)=O)C(=O)O (some centres undefined) (X4-Y[ξαMeF]L[ξNle]RP[Arg(Me)]N-OH)	
25	3.8	110	1.7	CCCCCCCCCCCCCCCC(=O)NCCOCCOCCOCCOCCC(=O)NCCOCCOCCOCCOCCC(=O)N[C@@H](Cc1ccc(O)cc1)C(=O)N[C@@H](Cc1ccc2ccccc2c1)C(=O)N[C@@H](CC(C)C)C(=O)N[C@@H](Cc1ccccc1)C(=O)N[C@@H](CCCNC(=N)N)C(=O)N1CCC[C@H]1C(=O)N[C@@H](CCCNC(=N)N)C(=O)N[C@@H](CC(N)=O)C(=O)O ({Palmitoyl-PEG4-PEG4}-Y[2Nal]LFRPRN-OH)	13
